# Experimental data taken from ChEMBL document CHEMBL3507680, “University of Dundee, Gates Library screen for HepG2 cell viability”.
# Test: Human HepG2 cell viability assay in 384 well format
# Type: toxicity, cell-based
# Set-up: dose 125 nL, time 70.5 hour; cytotoxicity at 70.5 h: concentration not given beside the values
# Conditions: HepG2 cells, read-out: Inhibition
row,SMILES,cytotoxicity at 70.5 h [%]
1,Cc1cc(C(=O)N2CCCN(Cc3cnn(C)c3)CC2)no1,-3.47
2,O=C(CN1CCCS(=O)(=O)CC1)NCc1ccccc1F,-8.4
3,O=C1NCCN(CC2CC2)C12CCN(Cc1ccco1)CC2,12.8
4,CC(C)COC1CC2(CCN(Cc3nccn3C)CC2)C1,6.92
5,CO[C@H]1CCN(C(=O)c2ccsc2)[C@@H]2CN(CC3CC3)C[C@H]12,-7.14
6,CC(C)(O)CN1CCN(C(=O)c2sccc2C2CC2)CC1,-6.03
7,O=c1ccc(-c2cccs2)nn1CN1CCCCCC1,-24.8
8,CNC(=O)C1CCCN(c2nc3c(-c4ccccc4)csc3c(=O)[nH]2)C1 (stereo not given),4.92
9,CCCn1nc2c(cc1=O)CN(CCCN1CCCC1=O)CC2,7.69
10,Cc1ccc(-c2nnc(CCC(=O)N3CCCC3c3ccc[nH]3)o2)cc1 (stereo not given),-2
11,Cc1c[nH]c(C(=O)N2C[C@H]3CC[C@@H]2CN(Cc2cscn2)C3)n1,-15.6
12,COCCN(C(=O)c1cnccn1)c1nc2c(s1)CCc1c-2cnn1C,7
13,Cc1ccc(CC(=O)N(C)CC2(O)CCN(c3ccccn3)C2)s1 (stereo not given),-6.87
14,CCC(=O)NCC(=O)NCC1(c2c(F)cccc2F)CCCC1,-4.06
15,CCN1CC[C@]2(CN(Cc3nccs3)C[C@H]2c2ccccc2)C1=O,-0.124
16,CCN1C(=O)CC(c2cnn(C)c2)C12CCN(C(=O)c1ccc[nH]1)CC2 (stereo not given),-1.7
17,CCCC(=O)Nc1sc(C(=O)OCC)c(C)c1C#N,-2.39
18,CCC(CN1CCCC1)n1cncc1-c1cnn(-c2ccccc2)c1 (stereo not given),-2.29
19,O=C(c1cncc(N2CC[C@@]3(O)CCNC[C@H]3C2)n1)N1CCCC1,-3.92
20,CC[C@H]1CN2CC[C@H]1C[C@@H]2CNCc1cccc(C#N)c1,13
21,CN(Cc1cccc(CCN)c1)Cc1cccc2ncccc12,-16.2
22,Cc1nccn1Cc1cccc(CNC(=O)c2ccn(C)c(=O)c2)c1,13.1
23,CN(C)c1ncc(C2Nc3ccccc3C3=NCCCN32)cn1 (stereo not given),-4.88
24,CCc1noc(CN(CC)Cc2cc3ccc(F)cc3[nH]c2=O)n1,9.1
25,COCCN1CCN(CCCc2nnnn2-c2ccccc2)CC1,-14.2
26,CN1CCN(C[C@H]2OC[C@@H]3CCN(C(=O)c4cnccn4)C[C@@H]32)CC1,-2.22
27,CC1(C)CN(CC(O)C(C)(C)C)C(=O)CN(C(=O)c2ccccc2)C1 (stereo not given),-4.32
28,CNS(=O)(=O)c1cc(C(=O)NC2COc3ccccc3C2)ccc1OC (stereo not given),6.83

row,SMILES,cytotoxicity at 70.5 h [%]
1,CCCn1c(C)c(CC(=O)NCC(N)=O)c2c1CC(C)(C)CC2=O,0.554
2,CN(C)[C@@H]1CN(C(=O)Cc2cccc(F)c2)[C@@H]2CCCO[C@H]12,-1.9
3,Cc1cnn(CCNCc2nc(-c3ccccc3Cl)no2)c1,31.1
4,COc1ccc2c(c1)CCCN2C(=O)NC1CCCCNC1=O (stereo not given),23.6
5,Cc1cnc(N2CCC3(CCN(CC4CC4)C3=O)CC2)nc1,-9.16
6,CCOc1cc(NC(=O)N2CCC(c3nnc[nH]3)CC2)ccc1C,-0.547
7,Cn1cccc1C(O)CNS(=O)(=O)Cc1ccccc1 (stereo not given),12.5
8,Cc1nc(C)c(CC(=O)N2C[C@H]3CC[C@@H]2CN(c2cnccn2)C3)s1,-4.55
9,NC(=O)c1nc(CN2CCOC(C(F)(F)F)C2)no1 (stereo not given),11.5
10,O=C(CCC(=O)N1CCCC1c1cccs1)N1CCc2sccc2C1 (stereo not given),2.92
11,CCC(C(=O)NCC1=CCCN(C)C1)c1ccccc1 (stereo not given),-13.4
12,COc1cccc(OC)c1CN1CCC2(CC(Nc3ccncn3)C2)C1 (stereo not given),-9.12
13,Cc1nc(C2CCCN(C(=O)c3scnc3C)C2)no1 (stereo not given),-7.6
14,COC(=O)[C@H]1CN(C(=O)NC(C)C)CCN1C(=O)c1cccs1,-5.45
15,CCOC(=O)C1CCN(C(=O)c2cc(OCC)c3ccoc3c2)CC1,-10.7
16,COC(=O)c1cc(C(=O)N2CCC(OC)CC2)n(-c2ccccc2)n1,-2.53
17,CN(C)c1cccc(C(=O)NCC2(O)CCOCC2)c1,-0.873
18,Cc1ccc(F)cc1S(=O)(=O)NCc1cccc(CS(C)(=O)=O)c1,-6.95
19,Cc1noc(C)c1CN1C[C@@H]2CC(F)(F)C[C@@H]2C1,-2.12
20,O=C(N1CCOCC1)N1CCc2ncnc(NC3CCC3)c2CC1,-14.5
21,N#Cc1cc(Cn2cnc(C3CCC3)cc2=O)ccc1F,-15.4
22,COC(=O)CCN1CCC(NC(=O)OC(C)(C)C)CC1,1.05
23,O=C(NCc1ccncc1)N1CCSCC1c1ccc(Cl)cc1 (stereo not given),3.04
24,CCOC(=O)c1cnn(C2CCN(C(=O)CC3C=CCC3)CC2)c1N (stereo not given),-1.64
25,CS(=O)(=O)N[C@@H]1CCN(Cc2cccnc2)[C@H]1Cc1cccnc1,13.6
26,O=C(NCc1ccco1)[C@@H]1COC[C@H]2CN(c3ncc(F)cn3)C[C@H]21,-7.6
27,CNC(=O)N1CC[C@@H]2CN(Cc3cccc(Cl)c3)S(=O)(=O)[C@@H]2CC1,-4.42
